Experimental data as given in PMC5676089 (Chemical Science, 2017).

Assays:
Conditions in all cases: two-fold dilutions in MH broth, 16–18 hours at 37 °C; triplicates
[1] = system: P. aeruginosa ZEM9.A; experiment: MIC, clinical isolate; assay type: cell-based, Pseudomonas aeruginosa
[2] = system: K. pneumoniae s.; experiment: MIC; assay type: cell-based, Klebsiella pneumoniae
[3] = system: P. aeruginosa ZEM1.A; experiment: MIC, clinical isolate; assay type: cell-based, Pseudomonas aeruginosa
[4] = system: S. aureus COL (MRSA); experiment: MIC; assay type: cell-based, Staphylococcus aureus
[5] = system: S. aureus Newman (MSSA); experiment: MIC; assay type: cell-based, Staphylococcus aureus
[6] = system: A. baumannii 19606; experiment: MIC; assay type: cell-based, Acinetobacter baumannii
[7] = system: E. coli (W3110); experiment: MIC; assay type: cell-based, Escherichia coli
[8] = system: P. aeruginosa PEJ2.6; experiment: MIC, clinical isolate; assay type: cell-based, Pseudomonas aeruginosa
[9] = system: P. aeruginosa PEJ9.1; experiment: MIC, clinical isolate; assay type: cell-based, Pseudomonas aeruginosa

- MIC ZEM9.A [1]: 4 μg mL^–1
- MIC K. pneumoniae s. [2]: 1 μg mL^–1
- MIC ZEM1.A [3]: 0.125 μg mL^–1
- MIC S. aureus COL (MRSA) [4]: >64 μg mL^–1
- MIC S. aureus Newman (MSSA) [5]: >64 μg mL^–1
- MIC A. baumannii 19606 [6]: 0.125 μg mL^–1
- MIC E. coli (W3110) [7]: 0.125 μg mL^–1
- MIC PEJ2.6 [8]: 0.5 μg mL^–1
- MIC PEJ9.1 [9]: 0.5 μg mL^–1
Substance: Polymyxin B
